Source: PubChem BioAssay (NCI)
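96-well plates; 48 h exposure; 5 concentrations. Endpoints by linear interpolation between flanking doses. Not reached: highest tested concentration assigned. GI50: concentration for 50% inhibition of growth. The concentration for full growth arrest is given as TGI.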

What was measured:
Test in all cases: NCI anticancer screen, dose series, 48 h
[1] = test system: COLO 205 colon
[2] = test system: HT29 colon
[3] = test system: 786-0 renal
[4] = test system: SNB-75 CNS
[5] = test system: SK-MEL-28 melanoma
[6] = test system: SR leukemia
[7] = test system: NCI-H226 lung
[8] = test system: A549 NSCLC
[9] = test system: ACHN renal
[10] = test system: RXF 393 renal

SMILES	TGI [1]	TGI [2]	TGI [3]	TGI [4]	TGI [5]	TGI [6]	TGI [7]	TGI [8]	TGI [9]	GI50 [3]	GI50 [4]	GI50 [5]	GI50 [6]	GI50 [7]	GI50 [10]	TGI [10]	GI50 [8]	GI50 [1]	GI50 [2]	GI50 [9]
c1cnc2c(c1)-n1cccc1C1(CCCCC1)NN2	> 100 µM	> 100 µM	> 100 µM	> 100 µM	> 100 µM	> 100 µM	> 100 µM	> 100 µM	> 100 µM	–	–	–	–	–	–	–	–	–	–	–
C/C(=N/NC(=S)Nc1ccccc1)c1nc2ccc(Cl)cc2[nH]1	–	–	0.368 µM	1.04 µM	0.872 µM	1.23 µM	0.925 µM	1.41 µM	–	0.0918 µM	0.328 µM	0.18 µM	0.0881 µM	0.134 µM	0.165 µM	0.783 µM	0.217 µM	–	–	–
COC1=CC(=O)O/C1=C(\OC)C1OC1c1ccccc1 (stereo not drawn)	> 100 µM	> 100 µM	> 100 µM	–	> 100 µM	93.8 µM	> 100 µM	> 100 µM	> 100 µM	–	–	–	–	–	–	> 100 µM	–	–	–	–
CC(C)(C)C#COC(=O)c1ccccc1	> 100 µM	> 100 µM	> 100 µM	–	–	> 100 µM	> 100 µM	> 100 µM	> 100 µM	–	–	–	–	–	–	–	–	–	–	–
O=C1CC23CCCCCCCCCCC2(C1)CC(=O)C3 (stereo not drawn)	33.5 µM	37.2 µM	> 100 µM	–	> 100 µM	56.5 µM	> 100 µM	> 100 µM	> 100 µM	–	–	–	–	–	–	89.2 µM	–	–	–	–
COc1ccc(-c2ccc(C3CC(c4ccccc4)=NN3)o2)c([N+](=O)[O-])c1 (stereo not drawn)	> 100 µM	> 100 µM	> 100 µM	–	> 100 µM	87.9 µM	–	> 100 µM	> 100 µM	60.6 µM	–	> 100 µM	30.3 µM	–	40 µM	> 100 µM	47.1 µM	52.9 µM	51.3 µM	57.7 µM
COc1cc2c(cc1C)NC(=O)/C2=C/c1ccnc2ccccc12	> 50 µM	–	> 50 µM	–	46.8 µM	> 50 µM	–	> 50 µM	25.6 µM	35.3 µM	–	11.2 µM	8.47 µM	–	–	–	20.8 µM	38.9 µM	–	10.3 µM
Nc1cc2c3c(cccc3c1)C(=O)N(CCN1CCCC1)C2=O	10.3 µM	22.2 µM	> 55.7 µM	17 µM	18.2 µM	> 22.4 µM	6.23 µM	> 100 µM	–	4.5 µM	3.4 µM	4.28 µM	0.979 µM	1.98 µM	6.43 µM	42.3 µM	1.79 µM	1.68 µM	3.11 µM	–
COc1ccc(-c2nc3ccccc3s2)cc1OC	> 100 µM	> 100 µM	> 100 µM	> 100 µM	> 100 µM	> 100 µM	–	> 100 µM	> 100 µM	–	–	–	–	–	–	–	–	–	–	–
Cn1c(COC(=O)NCCn2ccnc2)nc2c(N3CCOCC3)nc(-c3ccccc3)nc21	2.97 µM	1.47 µM	2.1 µM	2.15 µM	2.62 µM	–	3.6 µM	3.38 µM	1.31 µM	0.72 µM	0.759 µM	1.33 µM	–	1.72 µM	0.488 µM	1.8 µM	1.43 µM	1.15 µM	0.372 µM	0.353 µM
CC1=NN(c2cccc(Cl)c2)C(=O)/C1=C\c1cn(CC(O)CN2CCCCC2)c2ccccc12 (stereo not drawn)	3.26 µM	4.57 µM	20.8 µM	21.1 µM	3.47 µM	–	50.4 µM	72.9 µM	14.6 µM	7.46 µM	7.75 µM	1.82 µM	–	22.5 µM	4.97 µM	17.5 µM	24.6 µM	1.73 µM	2.02 µM	3.18 µM
CCN(CC)C(=S)SSC(C)C	20.6 µM	29.8 µM	31.7 µM	37.6 µM	23.1 µM	–	> 100 µM	> 100 µM	33.3 µM	17.3 µM	15.8 µM	11.1 µM	–	29.4 µM	16.5 µM	31.5 µM	31.2 µM	0.0412 µM	14.8 µM	17.2 µM
COc1cc2c(cc1OCCNC(=O)/C=C1\C[C@H]3C=Nc4cc(OCc5ccccc5)c(OC)cc4C(=O)N3C1)N=C[C@@H]1CCCN1C2=O	68.5 µM	> 100 µM	16.8 µM	–	46.3 µM	4.56 µM	60.1 µM	52.3 µM	71.5 µM	3.68 µM	–	18.1 µM	1.46 µM	32 µM	1.98 µM	4.98 µM	22.3 µM	14.9 µM	20.3 µM	25.8 µM
Cc1cccc(C)c1NC(=O)C(=O)Cc1nc2ccccc2s1	> 100 µM	> 100 µM	> 100 µM	> 100 µM	> 100 µM	–	> 100 µM	> 100 µM	> 100 µM	–	–	–	–	–	–	> 100 µM	–	–	–	–
O=c1c(-c2ccc3c(c2)OCO3)coc2c3c(ccc12)OCO3	> 100 µM	–	35.5 µM	49.7 µM	> 100 µM	> 100 µM	–	> 100 µM	38.8 µM	–	–	–	–	–	–	–	–	–	–	–
COc1ccc(-c2ccc(CC(=O)O)cc2)cc1OC	> 100 µM	> 100 µM	> 100 µM	> 100 µM	> 100 µM	> 100 µM	> 100 µM	> 100 µM	> 100 µM	–	–	–	–	–	–	–	–	–	–	–
COc1ccc(-n2cc(-c3ccc(OC)c(OC)c3)[nH]c2=O)cc1	> 100 µM	> 100 µM	> 100 µM	99.3 µM	> 100 µM	> 100 µM	> 100 µM	> 100 µM	> 100 µM	> 100 µM	12.1 µM	> 100 µM	> 100 µM	> 100 µM	–	–	> 100 µM	> 100 µM	> 100 µM	> 100 µM
O=C(Nc1sc2c(c1C(=O)O)CCCC2)c1ccco1	> 50 µM	–	> 50 µM	> 50 µM	> 50 µM	> 50 µM	–	> 50 µM	> 50 µM	> 50 µM	> 50 µM	> 50 µM	46.2 µM	–	> 50 µM	> 50 µM	19.1 µM	44.2 µM	–	14.1 µM
